pIC50: −log10 of the molar value.
The compounds below were run against T1, hSARM1 (Homo sapiens, UniProt Q6SZW1) (assay: ARM-SAM-TIR SARM1 IC50 Assay (NADase activity, NAD+ cleavage, RapidFire MS)). Conditions: ARM-SAM-TIR lysate 5 μg/mL, 2 hrs. pre-incubation with compound, 5 μM NAD+, 2 hrs. incubation.
T1 construct: This assay makes use of full length SARM1, which encompasses the ARM, SAM and TIR domains; made in house; host or cells: NRK1-HEK293T cells (transient transfection; cleared lysate used as enzyme)
T1 sequence (Q6SZW1 28-724): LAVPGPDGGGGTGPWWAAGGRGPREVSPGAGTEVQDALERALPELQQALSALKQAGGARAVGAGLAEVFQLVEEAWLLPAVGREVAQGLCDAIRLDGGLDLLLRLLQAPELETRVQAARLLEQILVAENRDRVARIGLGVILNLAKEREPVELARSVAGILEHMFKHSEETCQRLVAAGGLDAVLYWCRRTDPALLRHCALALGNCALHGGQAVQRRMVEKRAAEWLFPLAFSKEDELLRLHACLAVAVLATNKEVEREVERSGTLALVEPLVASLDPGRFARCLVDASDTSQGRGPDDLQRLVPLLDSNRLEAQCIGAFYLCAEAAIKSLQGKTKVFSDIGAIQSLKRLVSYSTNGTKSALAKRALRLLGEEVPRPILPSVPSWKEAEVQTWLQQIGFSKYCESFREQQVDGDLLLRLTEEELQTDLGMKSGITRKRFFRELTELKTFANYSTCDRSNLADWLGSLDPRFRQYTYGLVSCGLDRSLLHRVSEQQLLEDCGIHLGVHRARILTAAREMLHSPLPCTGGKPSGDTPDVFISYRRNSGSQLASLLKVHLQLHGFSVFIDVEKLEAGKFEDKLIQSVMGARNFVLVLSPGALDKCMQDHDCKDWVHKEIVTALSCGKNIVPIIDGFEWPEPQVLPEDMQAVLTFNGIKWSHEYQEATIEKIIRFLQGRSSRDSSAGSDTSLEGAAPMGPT
Format: biochemical
Procedure: This describes an assay of ARM-SAM-TIR NADase activity and use of this assay to measure the efficacy of compounds of the present invention to block SARM1 mediated NAD+ cleavage. This assay was optimized in such a way as to characterize the efficacy of the compounds of the present invention to inhibit SARM1 activity and to calculate an IC50 value for each compound. This assay makes use of full length SARM1, which encompasses the ARM, SAM and TIR domains.
NRK1-HEK293T cells were seeded onto 150 cm^2 plates at 20×10^6 cells per plate. The next day, the cells were transfected with 15 μg ARM-SAM-TIR expression plasmid (SEQ ID NO: 1 as disclosed in WO 2019/236879, Pages 77-81; Paragraph) [0310]).
The cultures were supplemented with 1 mM NR at time of transfection to minimize toxicity from ARM-SAM-TIR overexpression. Forty-eight hours after transfection, cells were harvested, pelleted by centrifugation at 1,000 rpm (Sorvall ST 16R centrifuge, Thermo Fisher), and washed once with cold PBS (0.01 M phosphate buffered saline NaCl 0.138 M; KCl 0.0027 M; pH 7.4). The cells were resuspended in PBS with protease inhibitors (Complete™ protease inhibitor cocktail, Roche product #11873580001) and cell lysates were prepared by sonication (Branson Sonifer 450, output=3, 20 episodes of stroke). The lysates were centrifuged (12,000×g for 10 min at 4° C.) to remove cell debris and the supernatants (containing ARM-SAM-TIR protein) were stored at −80° C. for later use in the in vitro ARM-SAM-TIR NADase assay (see below). Protein concentration was determined by the Bicinchoninic (BCA) method and used to normalize lysate concentrations.
The enzymatic assay was performed in a 384-well polypropylene plate in Dulbecco's PBS buffer in a final assay volume of 20 μL. ARM-SAM-TIR lysate with a final concentration of 5 μg/mL was pre-incubated with the respective compound at 1% DMSO final assay concentration over 2 hrs. at room temperature. The reaction was initiated by addition of 5 μM final assay concentration of NAD+ as substrate. After a 2 hrs. ambient temperature incubation, the reaction was terminated with 40 μL of stop solution of 7.5% trichloroacetic acid in acetonitrile. The NAD+ and ADPR concentrations were analyzed by a RapidFire High Throughput Mass Spectrometry System (Agilent Technologies, Santa Clara, CA) using an API4000 triple quadrupole mass spectrometer (AB Sciex Framingham, MA).
Compounds having an activity designated as “A” provided an IC50<50 nM; compounds having an activity designated as “B” provided an IC50 51-100 nM; compounds having an activity designated as “C” provided an IC50 101-500 nM; compounds having an activity designated as “D” provided an IC50 501-1000 nM; compounds having an activity designated as “E” provided an IC50>1000 nM.

pIC50, 6.30 to 7.00:
NC(=O)c1c(-c2ccncc2)n[nH]c1NC(=O)CCc1ccc(F)cc1 [Example 10, 5-(3-(4-Fluorophenyl)propanamido)-3-(pyridin-4-yl)-1H-pyrazole-4-carboxamide]
NC(=O)c1c(-c2ccncc2)n[nH]c1NC(=O)CCc1ccc(Cl)nc1 [Example 9, 5-(3-(6-Chloropyridin-3-yl)propanamido)-3-(pyridin-4-y1)-1H-pyrazole-4-carboxamide]
O=C1NCN(C(=O)CCc2ccc(Cl)cc2)c2[nH]nc(-c3ccncc3)c21 [Example 25, 7-(3-(4-Chlorophenyl)propanoyl)-3-(pyridin-4-yl)-1,5,6,7-tetrahydro-4H-pyrazolo[3,4-d]pyrimidin-4-one]
O=C(CCc1ccc(Cl)nc1)Nc1[nH]nc2c1c(=O)[nH]c1cnccc12 [Example 1, 3-(6-Chloropyridin-3-yl)-N-(4-oxo-4,5-dihydro-2H-pyrazolo[4,3-c][1,7]naphthyridin-3-yl)propanamide]
CNC(=O)c1c(-c2ccncc2)n[nH]c1NC(=O)CCc1ccc(Cl)cc1 [Example 24, 3-(3-(4-chlorophenyl)propanamido)-N-methyl-5-(pyridin-4-yl)-1H-pyrazole-4-carboxamide]
NC(=O)c1c(-c2ccncc2)n[nH]c1NC(=O)CCc1ccc(Cl)s1 [Example 15, 5-(3-(5-Chlorothiophen-2-yl)propanamido)-3-(pyridin-4-y1)-1H-pyrazole-4-carboxamide]
NC(=O)c1c(-c2ccncc2)n[nH]c1NC(=O)CCc1cnc(Cl)c(F)c1 [Example 12, 5-(3-(6-Chloro-5-fluoropyridin-3-yl)propanamido)-3-(pyridin-4-yl)-1H-pyrazole-4-carboxamide]
O=C(CCc1ccc(F)nc1)Nc1[nH]nc2c1c(=O)[nH]c1cnccc12 [Example 2, 3-(6-Fluoropyridin-3-y1)-N-(4-oxo-4,5-dihydro-2H-pyrazolo[4,3-c][1,7]naphthyridin-3-yl)propanamide]
NC(=O)c1c(-c2ccncc2)n[nH]c1NC(=O)CCc1ccc(C(F)(F)F)cc1 [Example 23, 3-(Pyridin-4-y1)-5-(3-(4-(trifluoromethyl)phenyl)propanamido)-1H-pyrazole-4-carboxamide]
NC(=O)c1c(-c2ccncc2)n[nH]c1NC(=O)CCc1ccc(F)c(F)c1 [Example 8, 5-(3-(3,4-Difluorophenyl)propanamido)-3-(pyridin-4-y1)-1H-pyrazole-4-carboxamide]
O=C1NCN(C(=O)CCc2ccc(Cl)c(F)c2)c2[nH]nc(-c3ccncc3)c21 [Example 26, 7-(3-(4-Chloro-3-fluorophenyl)propanoy1)-3-(pyridin-4-y1)-1,5,6,7-tetrahydro-4H-pyrazolo[3,4-d]pyrimidin-4-one]

pIC50, > 7.30:
O=C(CCc1ccc(Cl)cc1)Nc1[nH]nc2c1c(=O)[nH]c1cnccc12 [Example 3, 3-(4-Chlorophenyl)-N-(4-oxo-4,5-dihydro-2H-pyrazolo[4,3-c][1,7]naphthyridin-3-yl)propanamide]
O=C(CCc1ccc(Cl)c(F)c1)Nc1[nH]nc2c1c(=O)[nH]c1cnccc12 [Example 4, 3-(4-Chloro-3-fluorophenyl)-N-(4-oxo-4,5-dihydro-2H-pyrazolo[4,3-c][1,7]naphthyridin-3-yl)propanamide]
NC(=O)c1c(-c2ccncc2)n[nH]c1NC(=O)CCc1ccc(Cl)c(F)c1 [Example 14, 5-(3-(4-Chloro-3-fluorophenyl)propanamido)-3-(pyridin-4-yl)-1H-pyrazole-4-carboxamide]
NC(=O)c1c(-c2ccncc2)n[nH]c1NC(=O)CCc1ccc(Cl)cc1 [Example 13, 5-(3-(4-Chlorophenyl)propanamido)-3-(pyridin-4-yl)-1H-pyrazole-4-carboxamide]
O=C(CCc1ccc(F)c(F)c1)Nc1[nH]nc2c1c(=O)[nH]c1cnccc12 [Example 6, 3-(3,4-Difluorophenyl)-N-(4-oxo-4,5-dihydro-2H-pyrazolo[4,3-c][1,7]naphthyridin-3-yl)propanamide]

pIC50, 6.00 to 6.30:
Cc1cnncc1-c1n[nH]c(NC(=O)CCc2ccc(Cl)c(F)c2)c1C(N)=O [Example 17, 5-(3-(4-Chloro-3-fluorophenyl)propanamido)-3-(5-methylpyridazin-4-y1)-1H-pyrazole-4-carboxamide]
NC(=O)c1c(-c2ccncc2)n[nH]c1NC(=O)CCc1cc(F)cc(F)c1 [Example 11, 5-(3-(3,5-Difluorophenyl)propanamido)-3-(pyridin-4-y1)-1H-pyrazole-4-carboxamide-]
NC(=O)c1c(-c2ccncc2)n[nH]c1NC(=O)CCc1ccc(F)nc1 [Example 22, 5-(3-(6-Fluoropyridin-3-yl)propanamido)-3-(pyridin-4-yl)-1H-pyrazole-4-carboxamide]

pIC50, < 6.00:
O=C1NCN(C(=O)CCc2ccc(Cl)nc2)c2[nH]nc(-c3ccncc3)c21 [Example 28, 7-(3-(6-Chloropyridin-3-yl)propanoyl)-3-(pyridin-4-yl)-1,5,6,7-tetrahydro-4H-pyrazolo[3,4-d]pyrimidin-4-one]
NC(=O)c1c(-c2ccnnc2)n[nH]c1NC(=O)CCc1ccc(F)nc1 [Example 19, 5-(3-(6-Fluoropyridin-3-yl)propanamido)-3-(pyridazin-4-yl)-1H-pyrazole-4-carboxamide]
O=C1NCN(C(=O)CCc2cnc(Cl)c(F)c2)c2[nH]nc(-c3ccncc3)c21 [Example 27, 7-(3-(6-Chloro-5-fluoropyridin-3-y1)propanoyl)-3-(pyridin-4-y1)-1,5,6,7-tetrahydro-4H-pyrazolo[3,4-d]pyrimidin-4-one]
Cc1cnncc1-c1n[nH]c(NC(=O)CCc2ccc(F)nc2)c1C(N)=O [Example 16, 5-(3-(6-Fluoropyridin-3-yl)propanamido)-3-(5-methylpyridazin-4-yl)-1H-pyrazole-4-carboxamide]
CNC(=O)c1c(-c2ccnnc2)n[nH]c1NC(=O)CCc1ccc(F)nc1 [Example 18, 5-(3-(6-Fluoropyridin-3-yl)propanamido)-N-methyl-3-(pyridazin-4-y1)-1H-pyrazole-4-carboxamide]

pIC50, 7.00 to 7.29:
NC(=O)c1c(-c2ccncc2)n[nH]c1NC(=O)CCc1ccc(Cl)c(Cl)c1 [Example 7, 5-(3-(3,4-Dichlorophenyl)propanamido)-3-(pyridin-4-yl)-1H-pyrazole-4-carboxamide]
NC(=O)c1c(-c2ccnnc2)n[nH]c1NC(=O)CCc1ccc(Cl)c(F)c1 [Example 21, 5-(3-(4-Chloro-3-fluorophenyl)propanamido)-3-(pyridazin-4-yl)-1H-pyrazole-4-carboxamide]
O=C(CCc1cnc(Cl)c(F)c1)Nc1[nH]nc2c1c(=O)[nH]c1cnccc12 [Example 5, 3-(6-Chloro-5-fluoro-3-pyridyl)-N-(4-oxo-2,5-dihydropyrazolo[4,3-c][1,7]naphthyridin-3-y1)propanamide]

Source: patent publication US20260226056A1, “SUBSTITUTED 1H-PYRAZOLE-4-CARBOXAMIDES AS SARM1 INHIBITORS” (DISARM THERAPEUTICS, INC., priority 2023, published 2026)
